Positions of bridges follow the written chain, without caps; N, C: chain ends. Non-standard residues stand in square brackets, D forms with d. Residues, ends and D or L forms follow the SMILES beside them. Chains are numbered I, II in the order given. *: point of attachment. DOTA = O=C(O)CN1CCN(CC(=O)O)CCN(CC(=O)*)CCN(CC(=O)O)CC1; pGlu = O=C1CC[C@@H](C(=O)O)N1; Ahx = NCCCCCC(=O)O
Legend:
[1] = biological target: T1, human GnRH receptor (human, UniProt P30968 1-328); experiment: ratio of IC50 values from the competitive binding assay
T1 construct: whole, on cells; also called gonadotropin-releasing hormone (GnRH) receptor; ChemiScreen Human GnRH receptor membrane preparations
T1 sequence (looked up): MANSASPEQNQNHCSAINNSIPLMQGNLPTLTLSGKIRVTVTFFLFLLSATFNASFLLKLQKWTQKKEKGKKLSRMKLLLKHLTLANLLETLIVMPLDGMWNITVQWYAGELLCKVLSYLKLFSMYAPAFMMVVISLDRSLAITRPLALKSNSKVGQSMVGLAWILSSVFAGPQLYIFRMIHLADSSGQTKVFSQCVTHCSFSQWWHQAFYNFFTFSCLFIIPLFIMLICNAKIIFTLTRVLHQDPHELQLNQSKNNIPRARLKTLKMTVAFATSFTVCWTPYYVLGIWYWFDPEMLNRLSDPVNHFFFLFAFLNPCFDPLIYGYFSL

[2] = biological target: T2, human GnRH receptor membrane preparations (Homo sapiens, UniProt P30968); experiment: In vitro competitive GnRH receptor binding assay with ^125I-[D-Trp^6]-LH-RH
T2 construct: purchased Millipore, Inc (Billerica, Mass.)
T2 sequence (P30968 1-328): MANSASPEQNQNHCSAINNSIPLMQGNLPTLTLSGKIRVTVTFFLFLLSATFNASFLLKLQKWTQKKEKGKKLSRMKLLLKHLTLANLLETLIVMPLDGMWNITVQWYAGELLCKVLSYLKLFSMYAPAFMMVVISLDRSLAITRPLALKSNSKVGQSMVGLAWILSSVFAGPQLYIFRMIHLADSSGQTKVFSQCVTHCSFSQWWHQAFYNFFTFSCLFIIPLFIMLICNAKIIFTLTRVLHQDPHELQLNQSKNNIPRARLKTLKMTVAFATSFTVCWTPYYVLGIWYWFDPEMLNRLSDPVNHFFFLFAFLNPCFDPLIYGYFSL
Description: The GnRH receptor binding affinities (IC50 values) of DOTA-Ahx-(D-Lys^6-GnRH1), DOTA-Ahx-(D-Lys^6-GnRH2) and DOTA-Ahx-(L-Lys^6-GnRH3) were determined by in vitro competitive binding assay according to the published procedure^32 with modifications. Briefly, 5 μL of Millipore ChemiScreen™ human GnRH membrane preparations were incubated at 25° C. for 3 h with approximately 30,000 counts per minute (cpm) of ^125I-[D-Trp^6]-LH-RH in the presence of 10^−11 to 10^−5 M of each peptide in 95 μL of binding medium {50 mM N-(2-hydroxyethyl)-piperazine-N′-(2-ethanesulfonic acid), 5 mM MgCl2, 1 mM CaCl2, pH 7.4, 0.2% bovine serum albumin (BSA)}. After the incubation, 800 μL of ice-cold washing buffer (50 mM N-(2-hydroxyethyl)-piperazine-N′-(2-ethanesulfonic acid), 500 mM NaCl, pH 7.4, 0.1% BSA) was added to each mixture. Each resulting mixture was filtered through a GF/C filter (Whatman, Clifton, N.J.) pre-soaked in 1% polyethylenimine. Each filter was rinsed with 1 mL of ice-cold washing buffer for three times. The activities on the filters were measured in a Wallac 1480 automated gamma counter (PerkinElmer, Waltham, Mass.). The IC50 value of each peptide was calculated using Prism software (GraphPad Software, La Jolla, Calif.).

[3] = In vitro mouse serum stability by RP-HPLC; assay type: in vitro ADME; conditions: 37° C., 2 h
Description: In vitro serum stability of ^111In-DOTA-Ahx-(D-Lys^6-GnRH1) was determined by incubation in mouse serum at 37° C. for 2 h and monitored for degradation by RP-HPLC. Briefly, 100 μL of HPLC-purified ^111In-DOTA-Ahx-(D-Lys^6-GnRH1) solution (˜3.7 MBq) was added into 100 μL of mouse serum (Sigma-Aldrich Corp, St. Louis, Mo.) and incubated at 37° C. for 2 h. After the incubation, 200 μL of a mixture of ethanol and acetonitrile (V:V=1:1) was added to precipitate the serum. The resulting mixture was centrifuged at 10,000 g for 5 min to collect the supernatant. The supernatant was purged with N2 gas for 30 min to remove the ethanol and acetonitrile. The resulting sample was mixed with 500 μL of water and injected into RP-HPLC for analysis using the gradient described above.

[4] = tested on: MDA-MB-231 human breast cancer-xenografted nude mice; experiment: Biodistribution in MDA-MB-231 human breast cancer-xenografted nude mice; assay type: in vivo, mouse; conditions: MDA-MB-231 xenograft
Description: All the animal studies were conducted in compliance with Institutional Animal Care and Use Committee approval. The pharmacokinetics of ^111In-DOTA-Ahx-(D-Lys^6-GnRH1) was determined in MDA-MB-231 human breast cancer-xenografted female athymic nude mice (Harlan, Indianapolis, Ind.). The nude mice were subcutaneously inoculated with 1×10^7 MDA-MB-231 cells on the right flank of each mouse to generate MDA-MB-231 xenografted tumors. The tumor weights reached approximately 0.3 g at 18 days post cell inoculation. Each tumor-bearing mouse was injected with 0.037 MBq of ^111In-DOTA-Ahx-(D-Lys^6-GnRH1) via the tail vein. Groups of 5 mice were sacrificed at 0.5, 2, 4 and 24 h post-injection, and tumors and organs of interest were harvested, weighed and counted. Blood values were taken as 6.5% of the whole-body weight.

[5] = tested on: DU145 human prostate cancer-xenografted nude mice; experiment: Biodistribution in DU145 human prostate cancer-xenografted nude mice; assay type: in vivo, mouse; conditions: DU145 xenograft
Description: All the animal studies were conducted in compliance with Institutional Animal Care and Use Committee approval. The pharmacokinetics of ^111In-DOTA-Ahx-(D-Lys^6-GnRH1) was determined in DU145 human prostate cancer-xenografted male athymic nude mice (Harlan, Indianapolis, Ind.). The nude mice were subcutaneously inoculated with 1×10^7 DU145 cells on the right flank of each mouse to generate DU145 xenografted tumors. The tumor weights reached approximately 0.3 g at 18 days post cell inoculation. Each tumor-bearing mouse was injected with 0.037 MBq of 111In-DOTA-Ahx-(D-Lys6-GnRH1) via the tail vein. Groups of 5 mice were sacrificed at 0.5, 2, 4 and 24 h post-injection, and tumors and organs of interest were harvested, weighed and counted. Blood values were taken as 6.5% of the whole-body weight. To determine the tumor imaging property of ^111In-DOTA-Ahx-(D-Lys^6-GnRH1), approximately 33.3 MBq of ^111In-DOTA-Ahx-(D-Lys^6-GnRH1) was injected into a DU145 human prostate cancer-xenografted nude mouse (18 days post the cell inoculation) via the tail vein. The mouse was sacrificed for small animal SPECT/CT (Nano-SPECT/CT®, Bioscan) imaging at 0.5 h post-injection. The CT imaging was immediately followed by the whole-body SPECT imaging. The SPECT scans of 24 projections were acquired. Reconstructed SPECT and CT data were visualized and co-registered using InVivoScope (Bioscan, Washington D.C.).

[6] = Urinary metabolites by RP-HPLC in DU145 xenografted nude mouse; assay type: in vivo; conditions: 2 h post-injection
Description: One hundred microliters of HPLC purified ^111In-DOTA-Ahx-(D-Lys^6-GnRH1) (2.4 MBq) was injected into a DU145 human prostate cancer-xenografted nude mouse through the tail vein. At 2 h post-injection, the mouse was sacrificed and the urine was collected for metabolites analysis. The urine was centrifuged at 16,000 g for 5 min prior to the HPLC analysis. The radioactive metabolites in the urine were analyzed by injecting aliquots of the urine into HPLC. A 20-minute gradient of 15-25% acetonitrile/20 mM HCl was used for the urine analysis.

[7] = biological target: T1, human GnRH receptor; experiment: competitive binding against 125I-[D-Trp6]-LH-RH on human GnRH receptor membrane preparations, filter assay
Description: The GnRH receptor binding affinities (IC$50$ values) of DOTA-Ahx-(D-Lys^6-GnRH1), DOTA-Ahx-(D-Lys^6-GnRH2) and DOTA-Ahx-(L-Lys^6-GnRH3) were determined by in vitro competitive binding assay according to the published procedure[32] with modifications. […] After the incubation, 800 μL of ice-cold washing buffer (50 mM N-(2-hydroxyethyl)-piperazine-N'-(2-ethanesulfonic acid), 500 mM NaCl, pH 7.4, 0.1% BSA) was added to each mixture. Each resulting mixture was filtered through a GF/C filter (Whatman, Clifton, N.J.) pre-soaked in 1% polyethylenimine. Each filter was rinsed with 1 mL of ice-cold washing buffer for three times. The activities on the filters were measured in a Wallac 1480 automated gamma counter (PerkinElmer, Waltham, Mass.). The IC$50$ value of each peptide was calculated using Prism software (GraphPad Software, La Jolla, Calif.).

## DOTA-Ahx-(D-Lys^6-GnRH2) (peptide)
[1]
  fold decrease of GnRH receptor binding affinity against DOTA-Ahx-(D-Lys^6-GnRH1): 293 fold

## CC(C)C[C@H](NC(=O)[C@@H](CCCCNC(=O)CCCCCNC(=O)CN1CCN(CC(=O)O)CCN(CC(=O)O)CCN(CC(=O)O)CC1)NC(=O)[C@H](Cc1ccc(O)cc1)NC(=O)[C@H](CO)NC(=O)[C@H](Cc1c[nH]c2ccccc12)NC(=O)[C@H](Cc1c[nH]cn1)NC(=O)[C@@H]1CCC(=O)N1)C(=O)N[C@@H](CCCNC(=N)N)C(=O)N1CCC[C@H]1C(=O)NCC(N)=O [DOTA-Ahx-(D-Lys^6-GnRH1)]
[2]
  GnRH receptor binding affinity (in words): low nanomolar

## CC(C)C[C@H](NC(=O)[C@@H](CCCCNC(=O)[C@H](Cc1ccc(O)cc1)NC(=O)[C@H](CO)NC(=O)[C@H](Cc1c[nH]c2ccccc12)NC(=O)[C@H](Cc1c[nH]cn1)NC(=O)[C@@H]1CCC(=O)N1)NC(=O)CCCCCNC(=O)CN1CCN(CC(=O)O)CCN(CC(=O)O)CCN(CC(=O)O)CC1)C(=O)N[C@@H](CCCNC(=N)N)C(=O)N1CCC[C@H]1C(=O)NCC(N)=O [DOTA-Ahx-(D-Lys^6-GnRH2)] (I: {DOTA-Ahx}-[dK]LRPG-NH2 / II: [pGlu]HWSY; amide I:1-II:C)
[2]
  decrease of GnRH receptor binding affinity versus DOTA-Ahx-(D-Lys^6-GnRH1): 293 fold

## CC(C)C[C@H](NC(=O)[C@@H](CCCCNC(=O)CCCCCNC(=O)CN1CCN(CC(=O)O)CCN(CC(=O)O)CCN(CC(=O)O)CC1)NC(=O)[C@H](Cc1ccc(O)cc1)NC(=O)[C@H](CO)NC(=O)[C@H](Cc1c[nH]c2ccccc12)NC(=O)[C@H](Cc1cnc[nH]1)NC(=O)[C@@H]1CCC(=O)N1)C(=O)N[C@@H](CCCNC(=N)N)C(=O)N1CCC[C@H]1C(=O)NCC(N)=O [^111In-DOTA-Ahx-(D-Lys^6-GnRH1), metal not drawn]
[3]
  stability in mouse serum: stable
[4]; 0.5 h post-injection
  Kidneys, percent injected dose/gram: 15.39±4.59 % ID/g
  Tumor, percent injected dose/gram: 1.76±0.58 % ID/g
[4]; 2 h post-injection
  Blood, percent injected dose/gram: 0.20±0.03 % ID/g
  Kidneys, percent injected dose/gram: 8.88±1.26 % ID/g
  Liver, percent injected dose/gram: 0.77±0.06 % ID/g
  Tumor, percent injected dose/gram: 0.29±0.10 % ID/g
[4]; 4 h post-injection
  Kidneys, percent injected dose/gram: 9.28±1.18 % ID/g
  Liver, percent injected dose/gram: 0.97±0.13 % ID/g
  Tumor, percent injected dose/gram: 0.15±0.05 % ID/g
[4]; 24 h post-injection
  Kidneys, percent injected dose/gram: 4.43±1.67 % ID/g
  Liver, percent injected dose/gram: 0.59±0.16 % ID/g
  Tumor, percent injected dose/gram: 0.18±0.07 % ID/g
[5]; 0.5 h post-injection
  Kidneys, percent injected dose/gram: 10.93±1.53 % ID/g
  Tumor, percent injected dose/gram: 1.27±0.40 % ID/g
[5]; 2 h post-injection
  Kidneys, percent injected dose/gram: 6.41±0.34 % ID/g
  Tumor, percent injected dose/gram: 0.55±0.23 % ID/g
[5]; 4 h post-injection
  Kidneys, percent injected dose/gram: 7.29±0.90 % ID/g
  Tumor, percent injected dose/gram: 0.38±0.16 % ID/g
[5]; 24 h post-injection
  Kidneys, percent injected dose/gram: 2.72±0.64 % ID/g
  Tumor, percent injected dose/gram: 0.31±0.09 % ID/g
[6]
  metabolized into two compounds with higher polarity (urine): 90.2%
  remained intact in urine: 9.8%

## CC(C)C[C@H](NC(=O)[C@H](CCCCNC(=O)CCCCCNC(=O)CN1CCN(CC(=O)O)CCN(CC(=O)O)CCN(CC(=O)O)CC1)NC(=O)[C@H](Cc1ccc(O)cc1)NC(=O)[C@H](CO)NC(=O)[C@H](Cc1c[nH]c2ccccc12)NC(=O)[C@H](Cc1c[nH]cn1)NC(=O)[C@@H]1CCC(=O)N1)C(=O)N[C@@H](CCCNC(=N)N)C(=O)N1CCC[C@H]1C(=O)NCC(N)=O [DOTA-Ahx-(L-Lys^6-GnRH3)]
[2]
  decrease of GnRH receptor binding affinity versus DOTA-Ahx-(D-Lys^6-GnRH1): 119 fold

B1: DOTA-Ahx-(D-Lys^6-GnRH1) (peptide)
peptide: XHWSYKLRPG
modifications: pGlu at 1; D-Lys at 6 carrying DOTA-Ahx (aminohexanoic acid linker) on its epsilon amino group; C-terminal amide (Gly10-NH2)
[7]
  IC50: 36.1 nM

B2: DOTA-Ahx-(L-Lys^6-GnRH3) (peptide)
peptide: XHWSYKLRPG
modifications: pGlu at 1; L-Lys at 6 carrying DOTA-Ahx on its epsilon amino group; C-terminal amide
[1]
  fold decrease of GnRH receptor binding affinity against DOTA-Ahx-(D-Lys^6-GnRH1): 119 fold

Reference: patent publication US9180214B1, “Gonadotropin-releasing hormone receptor-targeting peptides and their use to treat and diagnose cancer” (STC.UNM, priority 2011, dated 2015)
